Results published in PubChem BioAssay (NCI).
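48-hour exposure; five concentrations; linearly interpolated endpoints. The concentration for 50% growth inhibition is given as GI50. TGI is the concentration that stops growth completely.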

Legend:
Assay in all cases: growth of human tumour cells (NCI), 48 h
HCC-2998 colon = tested on: HCC-2998 colon
SF-295 CNS = tested on: SF-295 CNS
BT-549 breast = tested on: BT-549 breast
MCF7 breast = tested on: MCF7 breast
PC-3 prostate = tested on: PC-3 prostate
SNB-75 CNS = tested on: SNB-75 CNS
COLO 205 colon = tested on: COLO 205 colon
MOLT-4 leukemia = tested on: MOLT-4 leukemia
U251 CNS = tested on: U251 CNS
SR leukemia = tested on: SR leukemia
KM12 colon = tested on: KM12 colon
SK-MEL-2 melanoma = tested on: SK-MEL-2 melanoma
SK-MEL-28 melanoma = tested on: SK-MEL-28 melanoma
UACC-62 melanoma = tested on: UACC-62 melanoma
HS 578T breast = tested on: HS 578T breast
HOP-92 NSCLC = tested on: HOP-92 NSCLC
NCI-H522 lung = tested on: NCI-H522 lung
SW-620 colon = tested on: SW-620 colon
NCI-H226 lung = tested on: NCI-H226 lung
HCT-116 colon = tested on: HCT-116 colon
SF-539 CNS = tested on: SF-539 CNS
CAKI-1 renal = tested on: CAKI-1 renal
MDA-MB-435 = tested on: MDA-MB-435
ACHN renal = tested on: ACHN renal
DU-145 prostate = tested on: DU-145 prostate
A549 NSCLC = tested on: A549 NSCLC
EKVX NSCLC = tested on: EKVX NSCLC
OVCAR-8 ovarian = tested on: OVCAR-8 ovarian
MDA-MB-231 breast = tested on: MDA-MB-231 breast
SNB-19 CNS = tested on: SNB-19 CNS
OVCAR-4 ovarian = tested on: OVCAR-4 ovarian
SN12C renal = tested on: SN12C renal
CCRF-CEM leukemia = tested on: CCRF-CEM leukemia
SK-OV-3 ovarian = tested on: SK-OV-3 ovarian
M14 melanoma = tested on: M14 melanoma
MALME-3M melanoma = tested on: MALME-3M melanoma
UACC-257 melanoma = tested on: UACC-257 melanoma
T-47D breast = tested on: T-47D breast
SF-268 CNS = tested on: SF-268 CNS
HL-60(TB) leukemia = tested on: HL-60(TB) leukemia
786-0 renal = tested on: 786-0 renal
IGROV1 ovarian = tested on: IGROV1 ovarian
OVCAR-5 ovarian = tested on: OVCAR-5 ovarian
NCI-H460 lung = tested on: NCI-H460 lung
HT29 colon = tested on: HT29 colon
SK-MEL-5 melanoma = tested on: SK-MEL-5 melanoma
A498 renal = tested on: A498 renal
UO-31 renal = tested on: UO-31 renal
K-562 leukemia = tested on: K-562 leukemia
RPMI-8226 leukemia = tested on: RPMI-8226 leukemia
LOX IMVI melanoma = tested on: LOX IMVI melanoma
HCT-15 colon = tested on: HCT-15 colon
HOP-62 NSCLC = tested on: HOP-62 NSCLC

## CCNC(=O)N1CCc2cc(OC)c(OCCc3ccc(OC)cc3)cc2C1c1ccc([N+](=O)[O-])cc1C (stereo unspecified)
HCC-2998 colon
  GI50: 1.95 µM
  TGI: > 100 µM
SF-295 CNS
  GI50: 0.576 µM
  TGI: > 100 µM
BT-549 breast
  GI50: 1.67 µM
  TGI: 6.12 µM
MCF7 breast
  GI50: 0.54 µM
  TGI: > 100 µM
PC-3 prostate
  GI50: 0.559 µM
  TGI: > 100 µM
SNB-75 CNS
  GI50: 0.68 µM
  TGI: 6.95 µM
COLO 205 colon
  GI50: 0.797 µM
  TGI: > 100 µM
MOLT-4 leukemia
  GI50: 0.485 µM
  TGI: > 100 µM
U251 CNS
  GI50: 0.58 µM
  TGI: > 100 µM
SR leukemia
  GI50: 0.327 µM
  TGI: > 100 µM
KM12 colon
  GI50: 4.64 µM
  TGI: > 100 µM
SK-MEL-2 melanoma
  GI50: 2.37 µM
  TGI: > 100 µM
SK-MEL-28 melanoma
  GI50: 0.869 µM
  TGI: > 100 µM
UACC-62 melanoma
  GI50: 0.547 µM
  TGI: > 100 µM
HS 578T breast
  GI50: 1.57 µM
  TGI: 7.35 µM
HOP-92 NSCLC
  GI50: 1.04 µM
  TGI: 8.03 µM
NCI-H522 lung
  GI50: 0.73 µM
  TGI: 3.41 µM
SW-620 colon
  GI50: 0.551 µM
  TGI: > 100 µM
NCI-H226 lung
  GI50: 2.09 µM
  TGI: > 100 µM
HCT-116 colon
  GI50: 0.437 µM
  TGI: > 100 µM
SF-539 CNS
  GI50: 0.702 µM
  TGI: 6.77 µM
CAKI-1 renal
  GI50: 1.09 µM
  TGI: > 100 µM
MDA-MB-435
  GI50: 0.491 µM
  TGI: > 100 µM
ACHN renal
  GI50: 0.875 µM
  TGI: > 100 µM
DU-145 prostate
  GI50: 1.87 µM
  TGI: > 100 µM
A549 NSCLC
  GI50: 0.84 µM
  TGI: > 100 µM
EKVX NSCLC
  GI50: > 100 µM
  TGI: > 100 µM
OVCAR-8 ovarian
  GI50: 0.812 µM
  TGI: > 100 µM
MDA-MB-231 breast
  GI50: 0.797 µM
  TGI: > 100 µM
SNB-19 CNS
  GI50: 1.33 µM
  TGI: > 100 µM
OVCAR-4 ovarian
  GI50: 2.8 µM
  TGI: > 100 µM
SN12C renal
  GI50: 1.84 µM
  TGI: > 100 µM
CCRF-CEM leukemia
  GI50: 0.662 µM
  TGI: > 100 µM
SK-OV-3 ovarian
  GI50: 2.83 µM
  TGI: > 100 µM
M14 melanoma
  GI50: 0.759 µM
  TGI: > 100 µM
MALME-3M melanoma
  GI50: 4.12 µM
  TGI: > 100 µM
UACC-257 melanoma
  GI50: 3.54 µM
  TGI: > 100 µM
T-47D breast
  GI50: 3.34 µM
  TGI: > 100 µM
SF-268 CNS
  GI50: 0.881 µM
  TGI: > 100 µM
HL-60(TB) leukemia
  GI50: 0.608 µM
  TGI: 10.6 µM
786-0 renal
  GI50: 0.619 µM
  TGI: > 100 µM
IGROV1 ovarian
  GI50: 0.759 µM
  TGI: > 100 µM
OVCAR-5 ovarian
  GI50: 2.14 µM
  TGI: > 100 µM
NCI-H460 lung
  GI50: 0.368 µM
  TGI: 3.3 µM
HT29 colon
  GI50: 0.706 µM
  TGI: 6.04 µM
SK-MEL-5 melanoma
  GI50: 0.794 µM
  TGI: 3.59 µM
A498 renal
  GI50: 1.55 µM
  TGI: 6.69 µM
UO-31 renal
  GI50: 1.54 µM
  TGI: > 100 µM
K-562 leukemia
  GI50: 0.381 µM
  TGI: > 100 µM
RPMI-8226 leukemia
  GI50: 0.631 µM
  TGI: 7.14 µM
LOX IMVI melanoma
  GI50: 0.387 µM
  TGI: 7.65 µM
HCT-15 colon
  GI50: 0.382 µM
  TGI: > 100 µM
HOP-62 NSCLC
  GI50: 2.28 µM
  TGI: > 100 µM
